These results are taken from patent publication US9822114B2, “Tricyclic oxazolidinone antibiotic compounds” (Idorsia Pharmaceuticals Ltd, priority 2008, dated 2017).

For one assay, the system named is M. catarrhalis A894. Kind of assay: Minimal inhibitory concentration (MIC), microdilution method in cation-adjusted Mueller-Hinton Broth (CLSI M7-A7). In kind it is cell-based. The note with it: Moraxella catarrhalis, strain A894. How it is done: Minimal inhibitory concentrations (MICs; mg/1) were determined in cation-adjusted Mueller-Hinton Broth by a microdilution method following the description given in “Methods for Dilution Antimicrobial Susceptibility Tests for Bacteria that Grow Aerobically”, Approved standard, 7th ed., Clinical and Laboratory Standards Institute (CLSI) Document M7-A7, Wayne, Pa., USA, 2006.
(In general: Dilution methods test growth across graded concentrations, often in twofold steps.)
In the case of `O=C1CSc2ccc(N3C[C@@H](CCCNC4Cn5c(=O)ccc6ccc(F)c4c65)OC3=O)nc2N1` (mixture of isomers) [Example 125, (RS)-9-fluoro-1-{3-[(R)-2-oxo-3-(3-oxo-3,4-dihydro-2H-pyrido[3,2-b][1,4]thiazin-6-yl)-oxazolidin-5-yl]-propylamino}-1,2-dihydro-pyrrolo[3,2,1-ij]quinolin-4-one], the MIC is not above 0.031 µg/mL.

`O=C1CSc2ccc(N3C[C@H](CCCNC4Cn5c(=O)ccc6ccc(F)c4c65)OC3=O)nc2N1` (mixture of isomers) [Example 126, (RS)-9-fluoro-1-{3-[(S)-2-oxo-3-(3-oxo-3,4-dihydro-2H-pyrido[3,2-b][1,4]thiazin-6-yl)-oxazolidin-5-yl]-propylamino}-1,2-dihydro-pyrrolo[3,2,1-ij]quinolin-4-one] showed an MIC not above 0.031 µg/mL.

The compound `Cc1ccc2ccc(=O)n3c2c1C(NCCC[C@@H]1CN(c2ccc4c(c2)NC(=O)CS4)C(=O)O1)C3` (mixture of isomers) [Example 152, (RS)-9-methyl-1-{3-[(R)-2-oxo-3-(3-oxo-3,4-dihydro-2H-benzo[1,4]thiazin-6-yl)-oxazolidin-5-yl]-propylamino}-1,2-dihydro-pyrrolo[3,2,1-ij]quinolin-4-one] showed an MIC not above 0.031 µg/mL.

In the case of `CN(CCC[C@@H]1CN(c2ccc3c(c2)NC(=O)CS3)C(=O)O1)C1Cn2c(=O)ccc3ccc(F)c1c32` (mixture of isomers) [Example 153, (RS)-9-fluoro-1-(methyl-{3-[(R)-2-oxo-3-(3-oxo-3,4-dihydro-2H-benzo[1,4]thiazin-6-yl)-oxazolidin-5-yl]-propyl}-amino)-1,2-dihydro-pyrrolo[3,2,1-ij]quinolin-4-one], the MIC was not above 0.031 µg/mL.

For the compound `O=C1COc2ccc(N3C[C@H](CCNCC4Cn5c(=O)cnc6cccc4c65)OC3=O)cc2N1` (mixture of isomers) [Example 154, (RS)-6-({2-[(S)-2-oxo-3-(3-oxo-3,4-dihydro-2H-benzo[1,4]oxazin-6-yl)-oxazolidin-5-yl]-ethylamino}-methyl)-5,6-dihydro-pyrrolo[1,2,3-de]quinoxalin-3-one], the MIC is not above 0.031 µg/mL.

The compound `O=C1COc2ccc(N3C[C@@H](CCNCC4Cn5c(=O)cnc6cccc4c65)OC3=O)cc2N1` (mixture of isomers) [Example 155, (RS)-6-({2-[(R)-2-oxo-3-(3-oxo-3,4-dihydro-2H-benzo[1,4]oxazin-6-yl)-oxazolidin-5-yl]-ethylamino}-methyl)-5,6-dihydro-pyrrolo[1,2,3-de]quinoxalin-3-one] returned an MIC not above 0.031 µg/mL.

In turn, `O=C1CSc2ccc(N3C[C@@H](CCNCC4Cn5c(=O)cnc6cccc4c65)OC3=O)cc2N1` (mixture of isomers) [Example 156, (RS)-6-({2-[(R)-2-oxo-3-(3-oxo-3,4-dihydro-2H-benzo[1,4]thiazin-6-yl)-oxazolidin-5-yl]-ethylamino}-methyl)-5,6-dihydro-pyrrolo[1,2,3-de]quinoxalin-3-one] came in with an MIC not above 0.031 µg/mL.

In the case of `O=C1CSc2ccc(N3C[C@H](CCNCC4(O)Cn5c(=O)ccc6ccc(F)c4c65)OC3=O)cc2N1` (mixture of isomers) [Example 174, (RS)-9-fluoro-1-hydroxy-1-({2-[(S)-2-oxo-3-(3-oxo-3,4-dihydro-2H-benzo[1,4]thiazin-6-yl)-oxazolidin-5-yl]-ethylamino}-methyl)-1,2-dihydro-pyrrolo[3,2,1-ij]quinolin-4-one], the MIC is not above 0.031 µg/mL.

`O=C1CSc2ccc(N3C[C@H](CNCC4Cn5c(=O)ccc6cccc4c65)OC3=O)nc2N1` (mixture of isomers) [Example 175, (RS)-1-({[(S)-2-oxo-3-(3-oxo-3,4-dihydro-2H-pyrido[3,2-b][1,4]thiazin-6-yl)-oxazolidin-5-ylmethyl]-amino}-methyl)-1,2-dihydro-pyrrolo[3,2,1-ij]quinolin-4-one]: the MIC is not above 0.031 µg/mL.

Turning to `O=C1CSc2ccc(N3C[C@H](CCNCC4Cn5c(=O)ccc6cccc4c65)OC3=O)nc2N1` (mixture of isomers) [Example 176, (RS)-1-({2-[(S)-2-oxo-3-(3-oxo-3,4-dihydro-2H-pyrido[3,2-b][1,4]thiazin-6-yl)-oxazolidin-5-yl]-ethylamino}-methyl)-1,2-dihydro-pyrrolo[3,2,1-ij]quinolin-4-one], the MIC is not above 0.031 µg/mL.

On to `O=C1CSc2ccc(N3C[C@@H](CCCNC4Cn5c(=O)ccc6ccc(Cl)c4c65)OC3=O)nc2N1` (mixture of isomers) [Example 177, (RS)-9-chloro-1-{3-[(R)-2-oxo-3-(3-oxo-3,4-dihydro-2H-pyrido[3,2-b][1,4]thiazin-6-yl)-oxazolidin-5-yl]-propylamino}-1,2-dihydro-pyrrolo[3,2,1-ij]quinolin-4-one], for which the MIC was not above 0.031 µg/mL.

With `O=C1CSc2ccc(N3C[C@@H](CCCNC4Cn5c(=O)ccc6ccc(Cl)c4c65)OC3=O)cc2N1` (mixture of isomers) [Example 178, (RS)-9-chloro-1-{3-[(R)-2-oxo-3-(3-oxo-3,4-dihydro-2H-benzo[1,4]thiazin-6-yl)-oxazolidin-5-yl]-propylamino}-1,2-dihydro-pyrrolo[3,2,1-ij]quinolin-4-one], the minimum inhibitory concentration (MIC) was not above 0.031 µg/mL.

Compound `CCc1ccc2ccc(=O)n3c2c1C(NCCC[C@@H]1CN(c2ccc4c(c2)NC(=O)CS4)C(=O)O1)C3` (mixture of isomers) [Example 179, (RS)-9-ethyl-1-{3-[(R)-2-oxo-3-(3-oxo-3,4-dihydro-2H-benzo[1,4]thiazin-6-yl)-oxazolidin-5-yl]-propylamino}-1,2-dihydro-pyrrolo[3,2,1-ij]quinolin-4-one] displayed an MIC not above 0.031 µg/mL.

Compound `C#Cc1ccc2ccc(=O)n3c2c1C(NCCC[C@@H]1CN(c2ccc4c(c2)NC(=O)CS4)C(=O)O1)C3` (mixture of isomers) [Example 180, (RS)-9-ethynyl-1-{3-[(R)-2-oxo-3-(3-oxo-3,4-dihydro-2H-benzo[1,4]thiazin-6-yl)-oxazolidin-5-yl]-propylamino}-1,2-dihydro-pyrrolo[3,2,1-ij]quinolin-4-one] displayed an MIC not above 0.031 µg/mL.

In turn, `O=C1COc2ccc(N3C[C@H](CCNCC4CN5C(=O)CCc6ccc(F)c4c65)OC3=O)cc2N1` (mixture of isomers) [Example 187, (RS)-9-fluoro-1-({2-[(S)-2-oxo-3-(3-oxo-3,4-dihydro-2H-benzo[1,4]oxazin-6-yl)-oxazolidin-5-yl]-ethylamino}-methyl)-1,2,5,6-tetrahydro-pyrrolo[3,2,1-ij]quinolin-4-one] gave an MIC not above 0.031 µg/mL.

For `O=C1CSc2ccc(N3C[C@@H](CCNCC4Cn5c(=O)ccc6ccc(F)c4c65)OC3=O)nc2N1` (mixture of isomers) [Example 197, (RS)-9-fluoro-1-({2-[(R)-2-oxo-3-(3-oxo-3,4-dihydro-2H-pyrido[3,2-b][1,4]thiazin-6-yl)-oxazolidin-5-yl]-ethylamino}-methyl)-1,2-dihydro-pyrrolo[3,2,1-ij]quinolin-4-one], the MIC is not above 0.031 µg/mL.

For `O=C1CSc2ccc(N3C[C@H](CCNCC4Cn5c(=O)ccc6ccc(F)c4c65)OC3=O)nc2N1` (mixture of isomers) [Example 198, (RS)-9-fluoro-1-({2-[(S)-2-oxo-3-(3-oxo-3,4-dihydro-2H-pyrido[3,2-b][1,4]thiazin-6-yl)-oxazolidin-5-yl]-ethylamino}-methyl)-1,2-dihydro-pyrrolo[3,2,1-ij]quinolin-4-one], the MIC was not above 0.031 µg/mL.

As for `O=C1CSc2ccc(N3C[C@@H](CCCNC4Cn5c(=O)cnc6ccc(F)c4c65)OC3=O)nc2N1` (mixture of isomers) [Example 199, (RS)-7-fluoro-6-{3-[(R)-2-oxo-3-(3-oxo-3,4-dihydro-2H-pyrido[3,2-b][1,4]thiazin-6-yl)-oxazolidin-5-yl]-propylamino}-5,6-dihydro-pyrrolo[1,2,3-de]quinoxalin-3-one], the MIC was not above 0.031 µg/mL.

Regarding `O=C1CSc2ccc(N3C[C@@H](CCCNC4CN5C(=O)CNc6ccc(F)c4c65)OC3=O)nc2N1` (mixture of isomers) [Example 200, (RS)-7-fluoro-6-{3-[(R)-2-oxo-3-(3-oxo-3,4-dihydro-2H-pyrido[3,2-b][1,4]thiazin-6-yl)-oxazolidin-5-yl]-propylamino}-1,2,5,6-tetrahydro-pyrrolo[1,2,3-de]quinoxalin-3-one], the MIC was not above 0.031 µg/mL.

The compound `CN1CC(=O)N2CC(NCCC[C@@H]3CN(c4ccc5c(n4)NC(=O)CS5)C(=O)O3)c3c(F)ccc1c32.Cl.Cl` (mixture of isomers) [Example 201, (RS)-7-fluoro-6-{3-[(R)-2-oxo-3-(3-oxo-3,4-dihydro-2H-pyrido[3,2-b][1,4]thiazin-6-yl)-oxazolidin-5-yl]-propylamino}-1-methyl-1,2,5,6-tetrahydro-pyrrolo[1,2,3-de]quinoxalin-3-one dihydrochloride] registered an MIC not above 0.031 µg/mL.

On to `Cl.Cl.O=C1CSc2ccc(N3C[C@@H](CCCNC4CN5C(=O)CN(CCCO)c6ccc(F)c4c65)OC3=O)nc2N1` (mixture of isomers) [Example 202, (RS)-7-fluoro-6-{3-[(R)-2-oxo-3-(3-oxo-3,4-dihydro-2H-pyrido[3,2-b][1,4]thiazin-6-yl)-oxazolidin-5-yl]-propylamino}-1-(3-hydroxypropyl)-1,2,5,6-tetrahydro-pyrrolo[1,2,3-de]quinoxalin-3-one dihydrochloride], for which the MIC came to 0.063 µg/mL.

Regarding `O=C1CSc2ccc(N3C[C@@H](CCN[C@H]4Cn5c(=O)ccc6ccc(F)c4c65)OC3=O)cc2N1` (racemic) [Example 14, (1RS)-9-fluoro-1-{2-[(RS)-2-oxo-3-(3-oxo-3,4-dihydro-2H-benzo[1,4]thiazin-6-yl)-oxazolidin-5-yl]-ethylamino}-1,2-dihydro-pyrrolo[3,2,1-ij]quinolin-4-one], the MIC is not above 0.031 µg/mL.

Still in this assay, the particulars now being: strain A894.
For `Cc1ccc(N2C[C@@H](CCNC[C@@H]3Cn4c(=O)ccc5ccc(F)c3c54)OC2=O)cc1F` (racemic) [Example 6, (1RS)-9-fluoro-1-({2-[(RS)-3-(3-fluoro-4-methyl-phenyl)-2-oxo-oxazolidin-5-yl]-ethylamino}-methyl)-1,2-dihydro-pyrrolo[3,2,1-U]quinolin-4-one], the “MIC for M. catarrhalis A894” value was found to be 0.125 µg/mL.

As usually defined, the MIC is the smallest concentration in the dilution series that meets the test's criterion for growth inhibition. Higher therefore signals weaker potency.
